Assay results: US6756374B2, “Diaminothiazoles having antiproliferative activity” (Hoffmann-La Roche Inc., priority 2001, dated 2004)

Key:
human cyclin B-CDK1 = human cyclin B-CDK1 (Homo sapiens, UniProt P06493); experiment: FlashPlate kinase assay, cyclin B-CDK1; type: biochemical; settings: Rb protein substrate, 1 μM ATP
Description: (§1) To determine inhibition of Cdk4, Cdk2 and Cdk1 activity, kinase assays were conducted using FlashPlate™ assays (NEN™-Life Science Products). FlashPlate assays were performed using recombinant human cyclin B-CDK1, human cyclin E-CDK2 or human cyclin D1-CDK4 complexes. GST-cyclinE (GST-cycE), CDK2, GST-cyclinB (GST-cycB), CDK1, GST-CDK4 and cyclin D1 (cycD1) cDNA clones in baculovirus vectors were provided by Dr. W. Harper at the Baylor College of Medicine, Houston, Tex.
(§2) The expression of the 62Kd protein was under the control of an IPTG inducible promoter in an M15 E. coli strain. Cells were lysed by sonication and purification was carried out by binding lysates at pH 8.0 to a Ni-chelated agarose column pretreated with 1 mM imidazole. The resin was then washed several times with incrementally decreasing pH buffers to pH 6.0, and eluted with 500 mM imidazole. Eluted protein was dialysed against 20 mM HEPES pH 7.5, 30% glycerol, 200 mM NaCl, and 1 mM DTT. Purified Rb fusion protein stocks were quantitated for protein concentration, aliquoted, and stored at −70° C.
(§3) For all three kinase assays reported herein, 96-well FlashPlates were coated with Rb protein at 10 μg/ml, using 100 μl per well. Plates were incubated at 4° C. overnight or at room temperature for 3 hours on a shaker. To control for nonspecific phosphorylation, one row of wells was coated with 100 μl/well coating buffer (20 mM HEPES, 0.2 M NaCl). Plates were then washed twice with wash buffer (0.01% Tween 20 in phosphate-buffered saline). Compounds to be tested (“test compounds”) were added to the wells at 5×final concentration. Reactions were initiated by immediate addition of 40 μl reaction mix (25 mM HEPES, 20 mM MgCl2, 0.002% Tween 20, 2 mM DTT, 1 μM ATP, 4 nM ^33P-ATP) and a sufficient amount of enzyme to give counts that were at least 10-fold above background. Plates were incubated at room temperature on a shaker for 30 minutes. Plates were washed four times with the wash buffer, sealed, and counted on the TopCount scintillation counter (Packard Instrument Co., Downers Grove, Ill.]. The percent inhibition of Rb phosphorylation, which is a measure of the inhibition of CDK activity, was determined according to the following formula: [formula]
(§4) where “test compound” refers to the average counts per minute of the test duplicates, “nonspecific” refers to the average counts per minute when no CyclinD/Cdk4, etc., was added, and “total” refers to the average counts per minute when no compound was added.

HCT116 = experiment: Tetrazolium dye (MTT) proliferation assay; type: cell-based; settings: Homo sapiens, HCT-116; HCT116 colorectal carcinoma cell line
Description: The cell line used was HCT116, a colorectal carcinoma cell line obtained from the American Type Cell Culture Collection (ATCC;
Rockville, Md.). The cells were grown in McCoy's 5A medium supplemented with 10% FCS and L-glutamine.
Cells were plated at the appropriate seeding density to give logarithmic growth over the course of the assay in a 96-well tissue culture plate. Plates were incubated overnight at 37° C. in a humidified incubator with 5% CO2. The next day, test compounds were serially diluted to four times the final concentration in the appropriate medium containing 1.2% DMSO. One-fourth final volume of each dilution was added in duplicate to the plates containing cells. The same volume of 1.2% DMSO in medium was added to a row of “control wells” such that the final concentration of DMSO in each well was 0.3%. Wells to which no cells were added served as the “blank.” Wells to which no inhibitor was added served as “no inhibitor control.” The plates were) returned to the incubator, and at set time points (determined by their growth curves) plates were analyzed as described below.
3-(4,5-dimethylthiazole-2-yl)-2,5-diphenyl-2H-tetrazolium bromide (thiazolyl blue; MTT; Sigma) was added to each well to yield a final concentration of 1 mg/ml. Plates were returned to the incubator for 2.5-3 hours at 37° C. The MTT-containing medium was removed and the resulting formazan metabolite was solubilized in 100% ethanol with shaking for 15 minutes at room temperature. Absorbance readings were taken in a microtiter plate reader (Dynatech and Molecular Devices plate readers were used interchangeably) at a wavelength of 570 nm with a 650 nm reference. Percent inhibition (% INH) is calculated by subtracting the absorbance of the blank well from all wells, then subtracting the ratio of the average absorbance of each test duplicate (SAVE) by the average of the controls (CAVE) from 1.00. The final number is then multiplied by 100 (% INH=(1.00−SAVE/CAVE)×100).

human cyclin D1-CDK4 = human cyclin D1-CDK4 (Homo sapiens, UniProt P11802); experiment: FlashPlate kinase assay, cyclin D1-CDK4; type: biochemical; settings: Rb protein substrate, 1 μM ATP
Chain of human cyclin D1-CDK4 (P11802 whole entry): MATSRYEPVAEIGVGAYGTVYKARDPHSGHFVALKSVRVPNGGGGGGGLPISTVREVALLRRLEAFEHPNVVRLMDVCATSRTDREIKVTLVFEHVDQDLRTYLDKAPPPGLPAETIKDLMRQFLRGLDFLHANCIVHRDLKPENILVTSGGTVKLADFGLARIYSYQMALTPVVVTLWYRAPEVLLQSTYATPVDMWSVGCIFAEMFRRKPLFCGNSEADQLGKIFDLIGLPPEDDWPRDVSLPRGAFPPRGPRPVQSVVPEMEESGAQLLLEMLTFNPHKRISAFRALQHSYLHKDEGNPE
Chain of human cyclin D1-CDK4 (P24385 whole entry partner): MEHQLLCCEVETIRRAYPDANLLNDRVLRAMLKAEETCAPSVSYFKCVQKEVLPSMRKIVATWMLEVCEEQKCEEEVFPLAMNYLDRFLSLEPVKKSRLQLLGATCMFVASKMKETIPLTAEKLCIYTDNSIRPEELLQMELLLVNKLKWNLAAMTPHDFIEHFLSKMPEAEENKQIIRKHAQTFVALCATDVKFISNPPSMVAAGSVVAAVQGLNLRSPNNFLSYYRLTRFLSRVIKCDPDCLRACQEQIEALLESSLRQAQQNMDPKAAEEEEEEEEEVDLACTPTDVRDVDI
Description: as §1, §2, §3, §4

human cyclin E-CDK2 = human cyclin E-CDK2 (Homo sapiens, UniProt P24941); experiment: FlashPlate kinase assay, cyclin E-CDK2; type: biochemical; settings: Rb protein substrate, 1 μM ATP
Description: as §1, §2, §3, §4

Chain of human cyclin B-CDK1 (P06493 whole entry): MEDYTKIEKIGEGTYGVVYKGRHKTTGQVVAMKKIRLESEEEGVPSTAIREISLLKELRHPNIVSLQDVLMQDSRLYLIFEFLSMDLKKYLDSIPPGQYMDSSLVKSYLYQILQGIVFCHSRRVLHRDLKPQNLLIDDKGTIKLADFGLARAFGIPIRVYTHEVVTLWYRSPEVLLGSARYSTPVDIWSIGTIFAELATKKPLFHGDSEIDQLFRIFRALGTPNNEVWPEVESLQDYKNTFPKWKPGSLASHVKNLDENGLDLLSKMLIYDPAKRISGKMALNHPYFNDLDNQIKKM
Chain of human cyclin B-CDK1 (P14635 whole entry partner): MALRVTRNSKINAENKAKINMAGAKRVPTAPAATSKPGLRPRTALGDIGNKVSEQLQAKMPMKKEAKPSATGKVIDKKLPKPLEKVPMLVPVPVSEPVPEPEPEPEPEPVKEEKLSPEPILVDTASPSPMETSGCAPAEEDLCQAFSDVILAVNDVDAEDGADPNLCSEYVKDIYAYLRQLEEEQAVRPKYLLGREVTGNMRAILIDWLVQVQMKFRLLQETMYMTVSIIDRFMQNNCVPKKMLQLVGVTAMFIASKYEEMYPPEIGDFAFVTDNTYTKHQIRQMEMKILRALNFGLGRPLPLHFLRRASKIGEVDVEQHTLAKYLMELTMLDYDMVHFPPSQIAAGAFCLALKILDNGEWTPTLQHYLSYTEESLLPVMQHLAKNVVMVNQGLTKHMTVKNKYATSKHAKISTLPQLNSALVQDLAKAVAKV

| SMILES | IC50 (human cyclin B-CDK1) [µM] | IC50 (HCT116) [µM] | IC50 (human cyclin D1-CDK4) [µM] | IC50 (human cyclin E-CDK2) [µM] |
| --- | --- | --- | --- | --- |
| CC(C)N1CCN(c2ccc(Nc3nc(N)c(C(=O)c4ccc5c(c4)OCCO5)s3)cc2)CC1 [Example 41, [4-Amino-2-[[4-[4-(1-methylethyl)-1-piperazinyl]phenyl]amino]-5-thiazolyl](2,3-dihydro-1,4-benzodioxin-6-yl)methanone] | 2.9 | 3 | 0.015 | 3.7 |
| CC(=O)N1CCN(c2ccc(Nc3nc(N)c(C(=O)c4ccc5c(c4)OCO5)s3)cc2)CC1 [Example 47, 1-Acetyl-4-[4-[[4-amino-5-[(1,3-benzodioxol-5-yl)carbonyl]-2-thiazolyl]amino]phenyl]piperazine] | 0.5 | 2.8 | 0.043 | 0.9 |
| COc1cccc(C(=O)c2sc(Nc3ccc(N4CCN(C(C)C)CC4)cc3)nc2N)c1 [Example 43, [4-Amino-2-[[4-[4-(1-methylethyl)-1-piperazinyl]phenyl]amino]-5-thiazolyl](3-methoxyphenyl)methanone] | 1.9 | 1.3 | 0.021 | 3.4 |
| COc1ccc(C(=O)c2sc(Nc3ccc(N4CCN(C)CC4)cc3)nc2N)cc1 [Example 32, [4-Amino-2-[[4-(4-methyl-1-piperazinyl)phenyl]amino]-5-thiazolyl](4-methoxyphenyl)methanone] | 3.9 | 5.6 | 0.08 | 9.6 |
| CN1CCN(c2ccc(Nc3nc(N)c(C(=O)c4ccc(N5CCCC5)c([N+](=O)[O-])c4)s3)cc2)CC1 [Example 58, [4-Amino-2-[[4-(4-methyl-1-piperazinyl)phenyl]amino]-5-thiazolyl][3-nitro-4-(1-pyrrolidinyl)phenyl]methanone] | 3.9 | 3.1 | 0.019 | 2.4 |
| CC(C)C[C@H](CO)Nc1ccc(C(=O)c2sc(Nc3ccc(N4CCN(C)CC4)cc3)nc2N)cc1[N+](=O)[O-] [Example 63, (R)-[4-Amino-2-[[4-(4-methyl-1-piperazinyl)phenyl]amino]-5-thiazolyl][3-nitro-4-[[1-(hydroxymethyl)-3-methylbutyl]amino]phenyl]methanone] | 5.2 | 1.3 | 0.025 | 5.3 |
| CN1CCN(c2ccc(Nc3nc(N)c(C(=O)c4ccc(N5CCC(O)CC5)c([N+](=O)[O-])c4)s3)cc2)CC1 [Example 64, [4-Amino-2-[[4-(4-methyl-1-piperazinyl)phenyl]amino]-5-thiazolyl][3-nitro-4-(4-hydroxy-1-piperidinyl)phenyl]methanone] | 3.5 | 8 | 0.009 | 4.8 |
| CCN(CC)c1ccc(C(=O)c2sc(Nc3ccc(N4CCN(C)CC4)cc3)nc2N)cc1 [Example 33, [4-Amino-2-[[4-(4-methyl-1-piperazinyl)phenyl]amino]-5-thiazolyl][4-(diethylamino)phenyl]methanone] | 6.1 | 9.2 | 0.008 | 6.5 |
| COCCNc1ccc(C(=O)c2sc(Nc3ccc(N4CCN(C)CC4)cc3)nc2N)cc1[N+](=O)[O-] [Example 60, [4-Amino-2-[[4-(4-methyl-1-piperazinyl)phenyl]amino]-5-thiazolyl][3-nitro-4-[(2-methoxyethyl)amino]phenyl]methanone] | 5.9 | 4.9 | 0.017 | 7.9 |
| CCN(CC)c1ccc(C(=O)c2sc(Nc3ccc(N4CCN(C(C)=O)CC4)cc3)nc2N)cc1 [Example 48, 1-Acetyl-4-[4-[[4-amino-5-[4-(diethylamino)benzoyl]-2-thiazolyl]amino]phenyl]piperazine] | 2.3 | 13.3 | 0.01 | 7.1 |
| COc1cccc(C(=O)c2sc(Nc3ccc(N4CCN(CCO)CC4)cc3)nc2N)c1 [Example 53, [4-Amino-2-[[4-[4-(2-hydroxyethyl)-1-piperazinyl]phenyl]amino]-5-thiazolyl](3-methoxyphenyl)methanone] | 2.3 | 2.5 | 0.006 | 1.3 |
| CN1CCN(c2ccc(Nc3nc(N)c(C(=O)c4ccc5oc6ccccc6c5c4)s3)cc2)CC1 [Example 34, [4-Amino-2-[[4-(4-methyl-1-piperazinyl)phenyl]amino]-5-thiazolyl](2-dibenzofuranyl)methanone] | 11.7 | 3.8 | 0.049 | 6.1 |
| CN1CCN(c2ccc(Nc3nc(N)c(C(=O)c4ccc(N5CCOCC5)cc4)s3)cc2)CC1 [Example 28, [4-Amino-2-[[4-(4-methyl-1-piperazinyl)phenyl]amino]-5-thiazolyl][4-(4-morpholinyl)phenyl]methanone] | 9.2 | 9.5 | 0.017 | 22.2 |
| COc1cc(OC)cc(C(=O)c2sc(Nc3ccc(N4CCN(C)CC4)c(F)c3)nc2N)c1 [Example 39, [4-Amino-2-[[3-fluoro-4-(4-methyl-1-piperazinyl)phenyl]amino]-5-thiazolyl](3,5-dimethoxyphenyl)methanone] | 2.8 | 3.6 | 0.021 | 7.9 |
| CN1CCN(c2ccc(Nc3nc(N)c(C(=O)c4ccc(O)cc4)s3)cc2)CC1 [Example 30, [4-Amino-2-[[4-(4-methyl-1-piperazinyl)phenyl]amino]-5-thiazolyl]-(4-hydroxyphenyl)methanone] | 2.4 | 3.6 | 0.053 | 2.3 |
| Nc1nc(Nc2ccc(N3CCN(CCO)CC3)cc2)sc1C(=O)c1ccc(N2CCCC2)cc1 [Example 50, [4-Amino-2-[[4-[4-(2-hydroxyethyl)-1-piperazinyl]phenyl]amino]-5-thiazolyl][4-(1-pyrrolidinyl)phenyl]methanone] | 5.5 | 9.3 | 0.03 | 2.5 |
| CCN(CC)c1ccc(C(=O)c2sc(Nc3ccc(N4CCN(C(C)C)CC4)cc3)nc2N)cc1 [Example 46, [4-Amino-2-[[4-[4-(1-methylethyl)-1-piperazinyl]phenyl]amino]-5-thiazolyl][4-(diethylamino)phenyl]methanone] | 3.6 | 3.6 | 0.014 | 5.2 |
| COc1ccc(C(=O)c2sc(Nc3ccc(N4CCN(C)CC4)cc3)nc2N)cc1F [Example 35, [4-Amino-2-[[4-(4-methyl-1-piperazinyl)phenyl]amino]-5-thiazolyl](3-fluoro-4-methoxyphenyl)methanone] | 1.1 | 1.8 | 0.008 | 1.8 |
| CC1CCCN1c1ccc(C(=O)c2sc(Nc3ccc(N4CCN(C)CC4)cc3)nc2N)cc1[N+](=O)[O-] (racemic) [Example 62, [4-Amino-2-[[4-(4-methyl-1-piperazinyl)phenyl]amino]-5-thiazolyl][3-nitro-4-(2-methyl-1-pyrrolidinyl)phenyl]methanone] | 10 | 4.4 | 0.044 | 5.9 |
